Where “and” joins values, the source holds several entries; their conditions need not be identical. Identical values can stand only once.
System: 953936-095-R-J2-PDC spheroids with HUVEC/MSC, viability
Assay: Anticancer human tumor 953936-095-R-J2-PDC patient-derived cervical squamous cell carcinoma cell line growth inhibition [PI3K]
Details: for viability, T/C: stronger effect = lower value
Method in brief: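 Stroma-containing spheroids: tumor line, pooled-donor HUVEC, hMSC. Treatments: targeted agents with PI3K inhibitors. Dosing: clinically relevant, half-log spacing, 10 microM ceiling without known Cmax. Read-out: cell viability.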

[1] = curve of first compound, second compound 0.00316 µM
[2] = curve of first compound, second compound 0.01 µM
[3] = curve of first compound, second compound 0.0316 µM
[4] = curve of first compound, second compound 0.1 µM
[5] = curve of first compound, second compound 0.316 µM
[6] = curve of first compound, second compound 1 µM
[7] = second compound 0.00316 µM, first compound 0.0316 µM
[8] = second compound 0.00316 µM, first compound 0.1 µM
[9] = second compound 0.01 µM, first compound 0.0316 µM
[10] = second compound 0.01 µM, first compound 0.1 µM
[11] = second compound 0.0316 µM, first compound 0.000316 µM
[12] = second compound 0.0316 µM, first compound 0.001 µM
[13] = second compound 0.0316 µM, first compound 0.00316 µM
[14] = second compound 0.0316 µM, first compound 0.01 µM
[15] = second compound 0.0316 µM, first compound 0.0316 µM
[16] = second compound 0.0316 µM, first compound 0.1 µM
[17] = second compound 0.1 µM, first compound 0.000316 µM
[18] = second compound 0.1 µM, first compound 0.001 µM
[19] = second compound 0.1 µM, first compound 0.00316 µM
[20] = second compound 0.1 µM, first compound 0.01 µM
[21] = second compound 0.1 µM, first compound 0.0316 µM
[22] = second compound 0.1 µM, first compound 0.1 µM
[23] = second compound 0.316 µM, first compound 0.000316 µM
[24] = second compound 0.316 µM, first compound 0.001 µM
[25] = second compound 0.316 µM, first compound 0.00316 µM
[26] = second compound 0.316 µM, first compound 0.01 µM
[27] = second compound 0.316 µM, first compound 0.0316 µM
[28] = second compound 0.316 µM, first compound 0.1 µM
[29] = second compound 1 µM, first compound 0.000316 µM
[30] = second compound 1 µM, first compound 0.001 µM
[31] = second compound 1 µM, first compound 0.00316 µM
[32] = second compound 1 µM, first compound 0.01 µM
[33] = second compound 1 µM, first compound 0.0316 µM
[34] = second compound 1 µM, first compound 0.1 µM
[35] = curve of first compound, second compound 3.16 µM
[36] = curve of first compound, second compound 10 µM
[37] = second compound 3.16 µM, first compound 0.000316 µM
[38] = second compound 3.16 µM, first compound 0.001 µM
[39] = second compound 3.16 µM, first compound 0.00316 µM
[40] = second compound 3.16 µM, first compound 0.01 µM
[41] = second compound 3.16 µM, first compound 0.0316 µM
[42] = second compound 3.16 µM, first compound 0.1 µM
[43] = second compound 10 µM, first compound 0.000316 µM
[44] = second compound 10 µM, first compound 0.001 µM
[45] = second compound 10 µM, first compound 0.00316 µM
[46] = second compound 10 µM, first compound 0.01 µM
[47] = second compound 10 µM, first compound 0.0316 µM
[48] = second compound 10 µM, first compound 0.1 µM
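Further: spheroids exposed to compounds for seven days before read-out.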

Cn1ncnc1[C@H]1c2n[nH]c(=O)c3cc(F)cc(c23)N[C@@H]1c1ccc(F)cc1 + CC(Nc1ccc2c(c1)OCCn1cc(N3C(=O)OCC3C(F)F)nc1-2)C(N)=O
IC50 [1]: > 100 nM | IC50 [2]: > 100 nM | IC50 [3]: > 100 nM | IC50 [4]: > 100 nM | IC50 [5]: < 0.316 nM | IC50 [6]: < 0.316 nM | viability, T/C (second compound 0.00316 µM, first compound 0.000316 µM): 99.8% | viability, T/C (second compound 0.00316 µM, first compound 0.001 µM): 104% | viability, T/C (second compound 0.00316 µM, first compound 0.00316 µM): 105% | viability, T/C (second compound 0.00316 µM, first compound 0.01 µM): 100% | viability, T/C [7]: 98.9% | viability, T/C [8]: 91.7% | viability, T/C (second compound 0.01 µM, first compound 0.000316 µM): 103% | viability, T/C (second compound 0.01 µM, first compound 0.001 µM): 106% | viability, T/C (second compound 0.01 µM, first compound 0.00316 µM): 88.1% | viability, T/C (second compound 0.01 µM, first compound 0.01 µM): 94.2% | viability, T/C [9]: 95% | viability, T/C [10]: 86.2% | viability, T/C [11]: 80% | viability, T/C [12]: 79% | viability, T/C [13]: 77.5% | viability, T/C [14]: 79.9% | viability, T/C [15]: 80.2% | viability, T/C [16]: 74.2% | viability, T/C [17]: 58.8% | viability, T/C [18]: 56% | viability, T/C [19]: 60.4% | viability, T/C [20]: 57.9% | viability, T/C [21]: 54.8% | viability, T/C [22]: 50.8% | viability, T/C [23]: 34.3% | viability, T/C [24]: 35.9% | viability, T/C [25]: 35.3% | viability, T/C [26]: 33.9% | viability, T/C [27]: 34% | viability, T/C [28]: 33% | viability, T/C [29]: 23.3% | viability, T/C [30]: 23.3% | viability, T/C [31]: 22.2% | viability, T/C [32]: 23.7% | viability, T/C [33]: 23% | viability, T/C [34]: 24.4%

CCCS(=O)(=O)Nc1ccc(F)c(C(=O)c2c[nH]c3ncc(-c4ccc(Cl)cc4)cc23)c1F + CC(Nc1ccc2c(c1)OCCn1cc(N3C(=O)OCC3C(F)F)nc1-2)C(N)=O
IC50 [1]: 5190 nM | IC50 [2]: 4760 nM | IC50 [3]: 4770 nM | IC50 [4]: 3260 nM | IC50 [5]: < 31.6 nM | IC50 [6]: < 31.6 nM | viability, T/C [7]: 93.9% | viability, T/C [8]: 101% | viability, T/C (second compound 0.00316 µM, first compound 0.316 µM): 104% | viability, T/C (second compound 0.00316 µM, first compound 1 µM): 111% | viability, T/C (second compound 0.00316 µM, first compound 3.16 µM): 87.3% | viability, T/C (second compound 0.00316 µM, first compound 10 µM): 0.81% | viability, T/C [9]: 91.7% | viability, T/C [10]: 94.8% | viability, T/C (second compound 0.01 µM, first compound 0.316 µM): 96.4% | viability, T/C (second compound 0.01 µM, first compound 1 µM): 98.7% | viability, T/C (second compound 0.01 µM, first compound 3.16 µM): 77.1% | viability, T/C (second compound 0.01 µM, first compound 10 µM): 0.48% | viability, T/C [15]: 82% | viability, T/C [16]: 78.7% | viability, T/C (second compound 0.0316 µM, first compound 0.316 µM): 78.7% | viability, T/C (second compound 0.0316 µM, first compound 1 µM): 81.9% | viability, T/C (second compound 0.0316 µM, first compound 3.16 µM): 75.6% | viability, T/C (second compound 0.0316 µM, first compound 10 µM): 3.87% | viability, T/C [21]: 56.3% | viability, T/C [22]: 58.7% | viability, T/C (second compound 0.1 µM, first compound 0.316 µM): 59% | viability, T/C (second compound 0.1 µM, first compound 1 µM): 56.1% | viability, T/C (second compound 0.1 µM, first compound 3.16 µM): 51.5% | viability, T/C (second compound 0.1 µM, first compound 10 µM): 0.85% | viability, T/C [27]: 34% | viability, T/C [28]: 34% | viability, T/C (second compound 0.316 µM, first compound 0.316 µM): 35.5% | viability, T/C (second compound 0.316 µM, first compound 1 µM): 35.8% | viability, T/C (second compound 0.316 µM, first compound 3.16 µM): 27.4% | viability, T/C (second compound 0.316 µM, first compound 10 µM): 0.86% | viability, T/C [33]: 21.7% | viability, T/C [34]: 23.6% | viability, T/C (second compound 1 µM, first compound 0.316 µM): 23.1% | viability, T/C (second compound 1 µM, first compound 1 µM): 26% | viability, T/C (second compound 1 µM, first compound 3.16 µM): 17.9% | viability, T/C (second compound 1 µM, first compound 10 µM): 0.87%

CC(C)NCC(C(=O)N1CCN(c2ncnc3c2C(C)CC3O)CC1)c1ccc(Cl)cc1 (stereo unspecified)
viability, T/C (compound 0.0316 µM): 92.7% [middle of 4 runs] | viability, T/C (compound 0.1 µM): 91.5% [middle of 4 runs] | viability, T/C (compound 0.316 µM): 80.4% [middle of 4 runs] | viability, T/C (compound 1 µM): 50.5% [middle of 4 runs] | viability, T/C (compound 3.16 µM): 24.3% [middle of 4 runs] | viability, T/C (compound 10 µM): 15.2% [middle of 4 runs] | IC50 (curve of compound): 1.02 µM [middle of 4 runs]

CNC(=O)c1ccc(N2C(=S)N(c3ccc(C#N)c(C(F)(F)F)c3)C(=O)C2(C)C)cc1F
viability, T/C (compound 0.0316 µM): 106% (2×) and 93.7% and 103% | viability, T/C (compound 0.1 µM): 98% [middle of 4 runs] | viability, T/C (compound 0.316 µM): 93.5% [middle of 4 runs] | viability, T/C (compound 1 µM): 102% (2×) and 112% and 107% | viability, T/C (compound 10 µM): 88.5% [middle of 4 runs] | IC50 (curve of compound): > 10000 nM

CC(C)n1nc(-c2ccc3oc(N)nc3c2)c2c(N)ncnc21 + Cc1nc(NC(=O)N2CCCC2C(N)=O)sc1-c1ccnc(C(C)(C)C(F)(F)F)c1
IC50 [3]: 24.3 nM | IC50 [4]: 18.7 nM | IC50 [5]: 7.32 nM | IC50 [6]: < 0.316 nM | IC50 [35]: < 0.316 nM | IC50 [36]: < 0.316 nM | viability, T/C [11]: 83% | viability, T/C [12]: 86.6% | viability, T/C [13]: 78.5% | viability, T/C [14]: 68.2% | viability, T/C [15]: 44.8% | viability, T/C [16]: 16.1% | viability, T/C [17]: 78.4% | viability, T/C [18]: 74.6% | viability, T/C [19]: 69.2% | viability, T/C [20]: 64.1% | viability, T/C [21]: 39.2% | viability, T/C [22]: 15.2% | viability, T/C [23]: 66% | viability, T/C [24]: 60.7% | viability, T/C [25]: 56.8% | viability, T/C [26]: 48.7% | viability, T/C [27]: 30.8% | viability, T/C [28]: 11.8% | viability, T/C [29]: 45.9% | viability, T/C [30]: 42.9% | viability, T/C [31]: 38.4% | viability, T/C [32]: 33.9% | viability, T/C [33]: 19.7% | viability, T/C [34]: 8.92% | viability, T/C [37]: 26% | viability, T/C [38]: 24.1% | viability, T/C [39]: 21.5% | viability, T/C [40]: 18.3% | viability, T/C [41]: 10.8% | viability, T/C [42]: 5.88% | viability, T/C [43]: 11.7% | viability, T/C [44]: 10.8% | viability, T/C [45]: 10.2% | viability, T/C [46]: 9.27% | viability, T/C [47]: 6.73% | viability, T/C [48]: 3.32%

CC(=O)c1c(C)c2cnc(Nc3ccc(N4CCNCC4)cn3)nc2n(C2CCCC2)c1=O + Cc1nc(NC(=O)N2CCCC2C(N)=O)sc1-c1ccnc(C(C)(C)C(F)(F)F)c1
IC50 [3]: > 100 nM | IC50 [4]: > 100 nM | IC50 [5]: > 100 nM | IC50 [6]: < 0.316 nM | IC50 [35]: < 0.316 nM | IC50 [36]: < 0.316 nM | viability, T/C [11]: 88.8% | viability, T/C [12]: 92.6% | viability, T/C [13]: 88.5% | viability, T/C [14]: 91% | viability, T/C [15]: 103% | viability, T/C [16]: 89.5% | viability, T/C [17]: 75.6% | viability, T/C [18]: 82.3% | viability, T/C [19]: 85.6% | viability, T/C [20]: 74.1% | viability, T/C [21]: 88% | viability, T/C [22]: 75.9% | viability, T/C [23]: 57.8% | viability, T/C [24]: 69.5% | viability, T/C [25]: 61% | viability, T/C [26]: 60.7% | viability, T/C [27]: 70.2% | viability, T/C [28]: 59.3% | viability, T/C [29]: 46.1% | viability, T/C [30]: 46.3% | viability, T/C [31]: 44.4% | viability, T/C [32]: 44.1% | viability, T/C [33]: 45.3% | viability, T/C [34]: 43.5% | viability, T/C [37]: 25.4% | viability, T/C [38]: 25.3% | viability, T/C [39]: 27.3% | viability, T/C [40]: 24.9% | viability, T/C [41]: 28.3% | viability, T/C [42]: 24.7% | viability, T/C [43]: 11.3% | viability, T/C [44]: 10.9% | viability, T/C [45]: 10.2% | viability, T/C [46]: 10.2% | viability, T/C [47]: 11.4% | viability, T/C [48]: 11.7%

Reference: PubChem BioAssay AID1963971 (Molecular Pharmacology Branch, DTP, NCI, 2024)
